Reference: patent US8916605B2, “Compounds and methods for treating cancer and viral infections” (priority 2009, dated 2014)

Tests used:
[1] = test system: Influenza A (strain A/PR/8/34); assay: Anti-influenza cytopathic effect (CPE) assay in MDCK cells, prophylactic regimen (Example 7); type: cell-based; parameters: key to CPE score: 1: Complete monolayer with few gaps or dead cells; 2: Some gaps in the monolayer; dead cells more evident; 3: Increasing number of gaps in the monolayer concurrent with dead cells; 4: Gaps widely distributed throughout the monolayer and of increasing size; 5: Large holes forming as smaller gaps merge; copious dead cells evident; 6: Monolayer integrity lost. Small islands of attached cells amid predominantly dead cells; settings: for CPE score: Influenza A, MDCK
[2] = test system: Influenza B (strain B/Lee/40); assay: as above; type: cell-based; parameters: key to CPE score: 1: Complete monolayer with few gaps or dead cells; 2: Some gaps in the monolayer; dead cells more evident; 3: Increasing number of gaps in the monolayer concurrent with dead cells; 4: Gaps widely distributed throughout the monolayer and of increasing size; 5: Large holes forming as smaller gaps merge; copious dead cells evident; 6: Monolayer integrity lost. Small islands of attached cells amid predominantly dead cells; settings: for CPE score: Influenza B, MDCK, virus + DMSO control 4
[3] = test system: all three transformed neuronal cell lines (IMR32, NG108, NSC34); assay: MTT (CIMA) cell proliferation assay (Example 4); settings: 72 h post-treatment; 0.5-250 μg/ml
Protocol: (§1) Compound preparation: Stock solutions of test compounds were prepared in dimethylsulfoxide (DMSO) at 250 mg/ml. Working concentrations of 10 mg/ml were subsequently prepared from the stock solution and stored in 50 μl aliquots at −20° C. until used.
Cells and cell culture: Three classes of cells were evaluated: 1) neuroblastoma cells, 2) neuroglioma cells, and 3) non-transformed human neurons (see below). All cells were maintained in appropriate culture medium supplemented with 10% fetal calf serum (FCS) and antibiotics in a humidified, 5% CO2 environment. Cells were passaged as required by trypsinization.
Assay conditions: The effects of the test compounds were assessed following acute and chronic exposure conditions. […] Each compound was evaluated over a broad range of concentrations (0, 0.5, 1, 5, 10, 50, 100 and 250 μg/ml) with cells treated with equivalent concentrations of vehicle (DMSO) serving as controls.
Cell proliferation assay: Cell proliferation was assessed using a standard colorimetric indicator of metabolic activity (CIMA) assay. In this assay, the reduction of yellow tetrazolium salt (MTT) to purple formazan by mitochondrial reductase enzymes in viable cells was evaluated as a measure of metabolic activity to determine the extent of cell proliferation within a culture. […]

MDCK cells = assay: Cytotoxicity assay (MTT/CIMA) in MDCK cells (Example 7)
U373 astroglioma cells = assay: MTT (CIMA) cell proliferation assay, acute and chronic exposure (Example 3); settings: acute (24 h) and chronic (72 h) treatment, 0.5-250 μg/ml
Protocol: as §1
(§2) Cells and cell culture: Proof-of-principle studies in this example focused on two human brain cancer cell lines, namely SH-SY5Y neuroblastoma cells and U373 astroglioma cells. […] Both cells were maintained in (50:50) F12:DMEM medium supplemented with 10% fetal calf serum (FCS) and antibiotics in a humidified, 5% CO2 environment. Cells were passaged as required by trypsinization.
(§3) Assays conditions: The effects of the test compounds were assessed following acute and chronic exposure conditions. […] The test compounds were evaluated over a broad range of concentrations (0, 0.5, 1, 5, 10, 50, 100 and 250 μg/ml) with cells treated with equivalent concentrations of vehicle (DMSO) serving as controls.
(§4) Cell proliferation assay: Cell proliferation was assessed using a standard colorimetric indicator of metabolic activity (CIMA) assay. In this assay, the reduction of yellow tetrazolium salt (MTT) to purple formazan by mitochondrial reductase enzymes in viable cells was evaluated as a measure of metabolic activity to determine the extent of cell proliferation within a culture. The resulting colour change that conferred a change in absorbance was quantified using a spectrophotometer (λ=500-600). Samples were diluted as required to ensure that values obtained with the MTT assay fell within the linear range of the protocol. Qualitative microscopic evaluation of treated cultures was used to determine if overt cytotoxicity was present and to supplement the quantitative CIMA data.

[4] = test system: SH-SY5Y neuroblastoma cells; assay: as above
Protocol: as §1, §2, §3, §4

CC(C)(C)OC(=O)N1CCCC1O (centres unmarked) [I(b), tert-butyl 2-hydroxypyrrolidine-1-carboxylate]
CPE score ([1]; 0.5 μg/ml, virus + DMSO control 3): 1
CPE score ([1]; 0.5 μg/ml, virus + DMSO control 4): 2
CPE score ([1]; 1.0 μg/ml, virus + DMSO control 3): 1
CPE score ([1]; 1.0 μg/ml, virus + DMSO control 4): 2
CPE score ([1]; 5.0 μg/ml, virus + DMSO control 3): 1
CPE score ([1]; 5.0 μg/ml, virus + DMSO control 4): 3
CPE score ([1]; 10 μg/ml, virus + DMSO control 3): 3
CPE score ([1]; 10 μg/ml, virus + DMSO control 4): 4
CPE score ([1]; 25 μg/ml, virus + DMSO control 3): 3
CPE score ([1]; 25 μg/ml, virus + DMSO control 4): 4
CPE score ([1]; 50 μg/ml, virus + DMSO control 3): 3
CPE score ([1]; 50 μg/ml, virus + DMSO control 4): 4
CPE score ([1]; 100 μg/ml, virus + DMSO control 3): 3
CPE score ([1]; 100 μg/ml, virus + DMSO control 4): 4
effect on CPE (summary in words) ([1]; comparatively lower concentrations): lower concentrations more greatly reduced CPE
effect on CPE (summary in words) ([2]; Influenza B infection): little impact on CPE
CPE score ([2]; 24 hpi, 0.5 μg/ml): 3
CPE score ([2]; 24 hpi, 1.0 μg/ml): 4
CPE score ([2]; 24 hpi, 5.0 μg/ml): 4
CPE score ([2]; 24 hpi, 10 μg/ml): 3
CPE score ([2]; 24 hpi, 25 μg/ml): 4
CPE score ([2]; 24 hpi, 50 μg/ml): 3
CPE score ([2]; 24 hpi, 100 μg/ml): 4
CPE score ([2]; 48 hpi, 0.5 μg/ml): 3
CPE score ([2]; 48 hpi, 1.0 μg/ml): 4
CPE score ([2]; 48 hpi, 5.0 μg/ml): 4
CPE score ([2]; 48 hpi, 10 μg/ml): 4
CPE score ([2]; 48 hpi, 25 μg/ml): 4
CPE score ([2]; 48 hpi, 50 μg/ml): 3
CPE score ([2]; 48 hpi, 100 μg/ml): 3
viability/proliferation [3]: dose-dependent decreases in viability/proliferation
Toxicity (MTT), fold changes relative to vehicle controls (MDCK cells; 24 h exposure, 0.5 μg/ml): 1.02 fold
Toxicity (MTT), fold changes relative to vehicle controls (MDCK cells; 24 h exposure, 1.0 μg/ml): 1.07 fold
Toxicity (MTT), fold changes relative to vehicle controls (MDCK cells; 24 h exposure, 5.0 μg/ml): 1.09 fold
Toxicity (MTT), fold changes relative to vehicle controls (MDCK cells; 24 h exposure, 10 μg/ml): 1.00 fold
Toxicity (MTT), fold changes relative to vehicle controls (MDCK cells; 24 h exposure, 25 μg/ml): 1.08 fold
Toxicity (MTT), fold changes relative to vehicle controls (MDCK cells; 24 h exposure, 50 μg/ml): 1.13 fold
Toxicity (MTT), fold changes relative to vehicle controls (MDCK cells; 24 h exposure, 100 μg/ml): 1.09 fold
Toxicity (MTT), fold changes relative to vehicle controls (MDCK cells; 72 h exposure, 0.5 μg/ml): 0.99 fold
Toxicity (MTT), fold changes relative to vehicle controls (MDCK cells; 72 h exposure, 1.0 μg/ml): 1.00 fold
Toxicity (MTT), fold changes relative to vehicle controls (MDCK cells; 72 h exposure, 5.0 μg/ml): 0.94 fold
Toxicity (MTT), fold changes relative to vehicle controls (MDCK cells; 72 h exposure, 10 μg/ml): 0.97 fold
Toxicity (MTT), fold changes relative to vehicle controls (MDCK cells; 72 h exposure, 25 μg/ml): 1.04 fold
Toxicity (MTT), fold changes relative to vehicle controls (MDCK cells; 72 h exposure, 50 μg/ml, decreases exceeding 25% considered toxic): 0.99 fold
Toxicity (MTT), fold changes relative to vehicle controls (MDCK cells; 72 h exposure, 100 μg/ml, decreases exceeding 25% considered toxic): 0.89 fold
cytotoxicity (summary in words) (MDCK cells; higher concentrations (≧25 μg/ml)): did not evidence cytotoxicity
overt cell death / reductions in MTT activity (U373 astroglioma cells): Neither overt cell death nor significant reductions in MTT activity
decrease in MTT activity ([4]; SH-SY5Y, acute treatment (24 h), 0.25 mg/ml): approximately 30%
change in MTT activity ([4]; SH-SY5Y, acute treatment (24 h), other concentrations evaluated (below 0.25 mg/ml)): No significant change in MTT activity
decrease in MTT activity ([4]; SH-SY5Y, chronic treatment (72 h), 50 μg/ml): 25%
decrease in MTT activity ([4]; SH-SY5Y, chronic treatment (72 h), 100 μg/ml): 25%
decrease in MTT activity ([4]; SH-SY5Y, chronic treatment (72 h), 250 μg/ml): 47%
LD50 ([4]; select cell types, chronic conditions (72 h)): ~0.25 mg/mL
